Data on 18 compounds can be found in patent publication US9796700B2 (Celgene CAR LLC, priority 2013, dated 2017).

Where two headings read alike, the source gives them in different places.

Test [1] has as its target MEK1 activated ERK1 (Homo sapiens (Human), UniProt P27361). As to the kind of experiment: Omnia continuous-read kinase assay for potency against MEK1 activated ERK1. It counts as biochemical. The conditions noted are these: MEK1 activated ERK1, WT, ATP at KM. Summed up:
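Apparent IC50 came from initial reaction slopes (RFU vs time) plotted against log inhibitor with a variable-slope fit. Reactions were started with ERK1 (4 nM final) added to 50 μM ATP, roughly at its appKM, and 10 μM Sox-conjugated ST17 peptide in 20 mM Tris pH 7.5, 5 mM MgCl2. Fluorescence was monitored every 71 seconds.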

Test [2] has as its system ERK1 phosphorylation of its substrate RSK in HT29 cells. As to the kind of experiment: pRSK MSD Assay in HT29 cells. It counts as cell-based. The conditions noted are these: read-out: ERK1 PRSK MSD HT29 EC50. On the procedure: The protocol below describes an assay to measure the kinase activity of ERK1 to phosphorylate its substrate, RSK, in the presence of a test compound. This experiment was conducted using a Mesoscale Discovery plate. The day before the assay, HT29 cells were split and plated at 50,000 cells/well in complete growth media. After allowing cells to adhere, the media was removed and replaced with media containing 0.1% FBS and incubated overnight. Blank MDS plates were coated with 25 μl/well RSK capture antibody and incubated at 4° C. overnight. The next day, the media was removed and replaced with 100 μl of media containing a test compound and incubated for 120 minutes at 37° C. The media was removed and replaced with 55 μl of well lysis buffer with protease and phosphatase inhibitors provided in the kit, followed by incubation at 4° C. for 30 minutes. 50 μl of lysate was transferred to a blocked MSD plate, followed by incubation at room temperature for 2 hours under constant shaking. The plate was washed 3 times with MSD wash buffer (cat#R617TX), and 25 μl/well phospho-RSK (pRSK) detection antibody was added with an appropriate Sulfo-tagged anti-species detection antibody diluted in 1% BSA in MSD wash buffer. This mixture was incubated for 1 hour at room temperature under constant shaking. The plate was washed 3 times, and 150 μl 1×MSD read buffer was added, followed by signal detection in an MSD plate reader.

The target in test [3] is Erk1 (Homo sapiens (Human), UniProt P27361). As to the kind of experiment: Protein Mass Modification Assay (intact protein MALDI). The test is classed as binding. Summed up: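 Percent covalent modification comes from the intact-protein MALDI centroid mass shift, treated versus control, divided by compound MW. Before analysis, human Erk1 was exposed to compound at 10-fold excess over protein for 60 min at room temperature.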
Chain of Erk1 (P27361 whole entry, looked up): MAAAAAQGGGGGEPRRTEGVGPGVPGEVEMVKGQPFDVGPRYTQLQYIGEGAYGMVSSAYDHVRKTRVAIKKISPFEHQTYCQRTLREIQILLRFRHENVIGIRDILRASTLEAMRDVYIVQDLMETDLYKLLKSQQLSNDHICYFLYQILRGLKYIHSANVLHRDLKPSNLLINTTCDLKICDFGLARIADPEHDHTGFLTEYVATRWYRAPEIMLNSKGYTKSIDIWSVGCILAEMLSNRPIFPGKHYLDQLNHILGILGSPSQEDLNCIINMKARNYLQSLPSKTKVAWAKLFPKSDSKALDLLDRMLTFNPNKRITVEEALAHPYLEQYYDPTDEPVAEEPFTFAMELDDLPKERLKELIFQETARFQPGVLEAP

For test [4], the system named is HT-29 cells. As to the kind of experiment: Measurement of inhibition of cancer cell proliferation (CellTiterGlo). The test is classed as cell-based. The conditions noted are these: Homo sapiens, 72 hours. On the procedure:
Measurement of Inhibition of Cancer Cell Proliferation
HT-29 cells were split and 3000 cells in 100 μl of growth medium were added per well of a flat-bottom 96-well plate. A two-fold test compound solution in serum-free RPM1640 was made, starting at 5,000 nM. Then, 3-fold serial dilutions were made across the plate from well 1 to well 11. Well 12, the last well in a row on the plate, was left as untreated control. 100 μl compound solutions were then transferred to the wells, so the total volume of media was 200 μl per well. Plates were returned to a 37° C. incubator, and the cells were cultured for 72 hours. To measure cell proliferation after 72 hours, media was discarded from the plates, 50 μl/well of fresh medium was added, and 50 μl CellTiterGlo solution was added (Promega Cat#G7573). The plate was covered with a dark lid and incubated for 10 min. A sealing tape was applied to the bottom of the plate, and the plate was read in a luminescence plate reader. […] A 2-fold serial dilution was used to generate 8 cell densities from 50,000-390 cells per well in 50 μl media. 50 μl CellTiterGlo was added per well, and the plate was read in a luminescence plate reader after 10 min. The reading was plotted vs. cell number to generate a standard curve and the equation of the curve fit. The compound-treated sample luminescence readings were converted to cell numbers using the equation. The percent of inhibition, using untreated control as 100% growth, was then calculated. GI50 was then calculated by GraphPad Prism.
(Cellular ATP, detected with luciferase, serves as a proxy for viable cell number.)

[5] abbreviates: Homo sapiens, HT-29, HT29 cells.

Chain of MEK1 activated ERK1 (P27361 whole entry): as the sequence (P27361 whole entry, looked up) above

As usually defined, the IC50 is the midpoint of a concentration-inhibition curve. The EC50 is the concentration at which the effect is half-maximal. With `CCC(=O)Nc1cc(C)ccc1Nc1nc(Nc2cc(OC)ncc2C)ncc1C(F)(F)F` [Compound I-352, N-(2-((2-((2-methoxy-5-methylpyridin-4-yl)amino)-5-(trifluoromethyl)pyrimidin-4-yl)amino)-5-methylphenyl)propionamide], the 50% inhibitory concentration (IC50) in test [1] is > 1000 nM. In addition, the EC50 in test [2] (setting [5]) was > 1000 nM. The “ERK1 Mass Mod (%)” value in test [3] is recorded as “G (proived a mass modification ≦30%)”.

For `C=CC(=O)Nc1cc(C)ccc1Nc1nc(Nc2cnnc(Cl)c2)ncc1C(F)(F)F` [Compound I-331, N-(2-((2-((6-chloropyridazin-4-yl)amino)-5-(trifluoromethyl)pyrimidin-4-yl)amino)-5-methylphenyl)acrylamide], the IC50 in test [1] was > 1000 nM. Also, the EC50 in test [2] (setting [5]) is 101 to 500 nM. For the same compound, the “ERK1 Mass Mod (%)” value in test [3] is recorded as “E (provided a mass modification of ≧70%)”.

As for `C=CC(=O)Nc1cc(Cl)ccc1Nc1nc(Nc2cc(OC)ncc2C)ncc1Cl` [Compound I-248, N-(5-chloro-2-((5-chloro-2-((2-methoxy-5-methylpyridin-4-yl)amino)pyrimidin-4-yl)amino)phenyl)acrylamide], the IC50 in test [1] was < 100 nM. For the same compound, the concentration giving a half-maximal response (EC50) in test [2] (setting [5]) was in the range of 101 to 500 nM. The “ERK1 Mass Mod (%)” value in test [3] is reported as “E (provided a mass modification of ≧70%)”.

Turning to `C=CC(=O)Nc1ccccc1Nc1nc(Nc2c[nH]nc2C)ncc1C(F)(F)F` [Compound I-330, N-(2-((2-((3-methyl-1H-pyrazol-4-yl)amino)-5-(trifluoromethyl)pyrimidin-4-yl)amino)phenyl)acrylamide], the 50% inhibitory concentration (IC50) in test [1] is > 1000 nM. For the same compound, the concentration giving a half-maximal response (EC50) in test [2] (setting [5]) is > 1000 nM. Besides, the “ERK1 Mass Mod (%)” value in test [3] is listed as “E (provided a mass modification of ≧70%)”.

For the compound `C=C(C)S(=O)(=O)Nc1ccccc1Nc1nc(NC2CCC(=O)CC2)ncc1C(F)(F)F` [Compound I-40, N-(2-((2-((4-Oxocyclohexyl)amino)-5-(trifluoromethyl)pyrimidin-4-yl)amino)phenyl)prop-1-ene-2-sulfonamide], in test [1], the IC50 was < 100 nM. In test [2] (setting [5]), the EC50 was > 1000 nM. Further, in test [3], the “ERK1 Mass Mod (%)” value was “F (provided a mass modification of 31-69%)”.

In the case of `COc1cc(Nc2ncc(C(F)(F)F)c(Nc3ccc(C)cc3N)n2)c(C)cn1` [Compound I-353, N^4-(2-amino-4-methylphenyl)-N^2-(2-methoxy-5-methylpyridin-4-yl)-5-(trifluoromethyl)pyrimidine-2,4-diamine], the IC50 in test [1] is > 1000 nM. Besides, in test [2] (setting [5]), the EC50 is > 1000 nM. In addition, the “ERK1 Mass Mod (%)” value in test [3] was “G (proived a mass modification ≦30%)”.

By GI50 is commonly meant the concentration at which growth is held to half of that of the control. Low values mean greater sensitivity of the cells, high ones lower sensitivity of the cells. In turn, `C=CC(=O)Nc1ccccc1Nc1nc(Nc2cc(C(=O)NOCCO)ccc2C)ncc1Cl` [Compound I-198, 3-((4-((2-acrylamidophenyl)amino)-5-chloropyrimidin-2-yl)amino)-N-(2-hydroxyethoxy)-4-methylbenzamide] came in with a 50% growth inhibitory concentration (GI50) in test [4] of 101 to 500 nM. For the same compound, the “ERK1 Mass Mod (%)” value in test [3] is recorded as “E (provided a mass modification of ≧70%)”.

In the case of `C=CC(=O)Nc1ccccc1Nc1nc(N[C@H]2CC[C@@H](F)CC2)ncc1C(F)(F)F` [Compound I-110, N-(2-((2-(cis-(4-fluorocyclohexyl)amino)-5-(trifluoromethyl)pyrimidin-4-yl)amino)phenyl)acrylamide], in test [1], the IC50 lay within 101 to 500 nM. Moreover, the concentration for a half-maximal effect (EC50) in test [2] (setting [5]) was in the range of 101 to 500 nM. Further, the “ERK1 Mass Mod (%)” value in test [3] is listed as “E (provided a mass modification of ≧70%)”.

In the case of `C=CC(=O)Nc1cc(C)ccc1Nc1nc(N[C@H]2CCCN(C(=O)CC)C2)ncc1C(F)(F)F` [Compound I-41, (S)—N-(5-Methyl-2-((2-((1-propionylpiperidin-3-yl)amino)-5-(trifluoromethyl)pyrimidin-4-yl)amino)phenyl)acrylamide], the concentration for half-maximal inhibition (IC50) in test [1] is < 100 nM. Also, the concentration giving a half-maximal response (EC50) in test [2] (setting [5]) lay within 101 to 500 nM. Moreover, the “ERK1 Mass Mod (%)” value in test [3] is on record as “E (provided a mass modification of ≧70%)”.

Take `C=CC(=O)Nc1cc(C)ccc1Nc1nc(Nc2cc(OC)cc(OC)c2)ncc1C(F)(F)F` [Compound I-339, N-(2-((2-((3,5-dimethoxyphenyl)amino)-5-(trifluoromethyl)pyrimidin-4-yl)amino)-5-methylphenyl)acrylamide]: the 50% inhibitory concentration (IC50) in test [1] is > 1000 nM. The EC50 in test [2] (setting [5]) is 101 to 500 nM. In addition, the “ERK1 Mass Mod (%)” value in test [3] was “E (provided a mass modification of ≧70%)”.

As to `C=CC(=O)Nc1ccccc1Nc1nc(N[C@H]2CC[C@H](F)CC2)ncc1C(F)(F)F` [Compound I-111, N-(2-((2-(trans-(4-fluorocyclohexyl)amino)-5-(trifluoromethyl)pyrimidin-4-yl)amino)phenyl)acrylamide], the IC50 in test [1] is 101 to 500 nM. The EC50 in test [2] (HT29 cells) is 101 to 500 nM. In addition, the “ERK1 Mass Mod (%)” value in test [3] is listed as “E (provided a mass modification of ≧70%)”.

For the compound `C=CC(=O)Nc1cc(C)ccc1Nc1nc(Nc2nc(OC)ncc2C)ncc1C(F)(F)F` [Compound I-347, N-(2-((2-((2-methoxy-5-methylpyrimidin-4-yl)amino)-5-(trifluoromethyl)pyrimidin-4-yl)amino)-5-methylphenyl)acrylamide], the 50% inhibitory concentration (IC50) in test [1] lay within 101 to 500 nM. In addition, the concentration giving a half-maximal response (EC50) in test [2] (setting [5]) was 101 to 500 nM. In addition, the “ERK1 Mass Mod (%)” value in test [3] is on record as “E (provided a mass modification of ≧70%)”.

For `C=CC(=O)Nc1ccccc1Nc1nc(Nc2cc(OC)nc(N3CCN(C)CC3)c2)ncc1C(F)(F)F` [Compound I-324, N-(2-((2-((2-methoxy-6-(4-methylpiperazin-1-yl)pyridin-4-yl)amino)-5-(trifluoromethyl)pyrimidin-4-yl)amino)phenyl)acrylamide], the IC50 in test [1] was < 100 nM. Further, in test [2] (setting [5]), the EC50 fell in the range of 101 to 500 nM. Further, the “ERK1 Mass Mod (%)” value in test [3] was “E (provided a mass modification of ≧70%)”.

For `C/C=C/S(=O)(=O)Nc1cc(F)ccc1Nc1nc(N[C@H]2CCCN(C(=O)CO)C2)ncc1C(F)(F)F` [Compound I-48, (S,E)-N-(5-Fluoro-2-((2-((1-(2-hydroxyacetyl)piperidin-3-yl)amino)-5-(trifluoromethyl)pyrimidin-4-yl)amino)phenyl)prop-1-ene-1-sulfonamide], the IC50 in test [1] is < 100 nM. In test [2] (setting [5]), the EC50 was > 1000 nM. Besides, the “ERK1 Mass Mod (%)” value in test [3] is given as “G (proived a mass modification ≦30%)”.

In the case of `C=CC(=O)Nc1cc(C)ccc1Nc1nc(Nc2nc(OC)ncc2Cl)ncc1C(F)(F)F` [Compound I-344, N-(2-((2-((5-chloro-2-methoxypyrimidin-4-yl)amino)-5-(trifluoromethyl)pyrimidin-4-yl)amino)-5-methylphenyl)acrylamide], in test [1], the concentration for half-maximal inhibition (IC50) was < 100 nM. The EC50 in test [2] (setting [5]) is < 100 nM. In addition, the “ERK1 Mass Mod (%)” value in test [3] was “E (provided a mass modification of ≧70%)”.

On to `C=CC(=O)Nc1ccccc1Nc1nc(NC2CCC(=O)CC2)ncc1C(F)(F)F` [Compound I-23, N-(2-((2-((4-Oxocyclohexyl)amino)-5-(trifluoromethyl)pyrimidin-4-yl)amino)phenyl)acrylamide], for which the IC50 in test [1] was < 100 nM. Moreover, the 50% effective concentration (EC50) in test [2] (setting [5]) fell in the range of 101 to 500 nM. Further, in test [3], the “ERK1 Mass Mod (%)” value is “E (provided a mass modification of ≧70%)”.

Take `CC(C)=CC(=O)c1ccccc1Oc1nc(Nc2ccc(F)cc2C)ncc1C(N)=O` [Compound I-272, 2-((4-fluoro-2-methylphenyl)amino)-4-(2-(3-methylbut-2-enoyl)phenoxy)pyrimidine-5-carboxamide]: the IC50 in test [1] was > 1000 nM. Further, the concentration giving a half-maximal response (EC50) in test [2] (setting [5]) was > 1000 nM. Further, in test [3], the “ERK1 Mass Mod (%)” value is listed as “G (proived a mass modification ≦30%)”.

In the case of `C=CC(=O)Nc1cc(C)ccc1Nc1nc(Nc2cc(OC)ncn2)ncc1C(F)(F)F` [Compound I-348, N-(2-((2-((6-methoxypyrimidin-4-yl)amino)-5-(trifluoromethyl)pyrimidin-4-yl)amino)-5-methylphenyl)acrylamide], the IC50 in test [1] was > 1000 nM. For the same compound, in test [2] (setting [5]), the half-maximal effective concentration (EC50) was 501 to 999 nM. Further, the “ERK1 Mass Mod (%)” value in test [3] is “G (proived a mass modification ≦30%)”.
